Data as given in ChEMBL document CHEMBL6103594, “Synthesis and evolution of 16-membered macrolide carrimycin derivatives as a novel class of anti-HCoV-OC43 agents targeting viral FSE RNA” (Eur J Med Chem, 2025).
The source made the active and inactive calls. No cut-off for these calls is given here.

How the values were obtained:
Human coronavirus 229E [1] = assay: Antiviral activity against HCoV-229E; assay type: functional, organism-based
Human coronavirus OC43 [2] = assay: Antiviral activity against HCoV-OC43; assay type: functional, organism-based
FSE RNA pseudoknot = assay: Binding affinity to CM5 chip-immobilized coronavirus FSE RNA pseudoknot assessed as dissociation constant by SPR analysis; assay type: nucleic-acid assay, unidentified human coronavirus
Human coronavirus 229E [3] = assay: Antiviral activity against HCoV-229E at replication stage in human Huh-7 cells assessed as dsRNA level at 2 uM treated immediately after infection incubated for 4 to 10 hrs by immunofluorescence based analysis; assay type: functional, organism-based; conditions: time 4-10 hrs
[4] = Selectivity index, ratio of CC50 for cytotoxicity against human NCI-H460 cells to EC50 for antiviral activity against HCoV-OC43 infected in human NCI-H460 cells; assay type: toxicity, cell-based, NCI-460; conditions: read-out: Ratio CC50/EC50
[5] = target: T1, DIS3-like exonuclease 2 (Homo sapiens) (UniProt Q8IYB7); assay: Binding affinity to DIS3L2 in human NCI-H460 cells assessed as increase in thermal stability at 10 uM incubated for 6 hrs followed by heat exposure at 55 to 75 degreeC for 3 mins by CETSA; assay type: cell-based; conditions: time 363.0 min
T1 sequence (whole entry): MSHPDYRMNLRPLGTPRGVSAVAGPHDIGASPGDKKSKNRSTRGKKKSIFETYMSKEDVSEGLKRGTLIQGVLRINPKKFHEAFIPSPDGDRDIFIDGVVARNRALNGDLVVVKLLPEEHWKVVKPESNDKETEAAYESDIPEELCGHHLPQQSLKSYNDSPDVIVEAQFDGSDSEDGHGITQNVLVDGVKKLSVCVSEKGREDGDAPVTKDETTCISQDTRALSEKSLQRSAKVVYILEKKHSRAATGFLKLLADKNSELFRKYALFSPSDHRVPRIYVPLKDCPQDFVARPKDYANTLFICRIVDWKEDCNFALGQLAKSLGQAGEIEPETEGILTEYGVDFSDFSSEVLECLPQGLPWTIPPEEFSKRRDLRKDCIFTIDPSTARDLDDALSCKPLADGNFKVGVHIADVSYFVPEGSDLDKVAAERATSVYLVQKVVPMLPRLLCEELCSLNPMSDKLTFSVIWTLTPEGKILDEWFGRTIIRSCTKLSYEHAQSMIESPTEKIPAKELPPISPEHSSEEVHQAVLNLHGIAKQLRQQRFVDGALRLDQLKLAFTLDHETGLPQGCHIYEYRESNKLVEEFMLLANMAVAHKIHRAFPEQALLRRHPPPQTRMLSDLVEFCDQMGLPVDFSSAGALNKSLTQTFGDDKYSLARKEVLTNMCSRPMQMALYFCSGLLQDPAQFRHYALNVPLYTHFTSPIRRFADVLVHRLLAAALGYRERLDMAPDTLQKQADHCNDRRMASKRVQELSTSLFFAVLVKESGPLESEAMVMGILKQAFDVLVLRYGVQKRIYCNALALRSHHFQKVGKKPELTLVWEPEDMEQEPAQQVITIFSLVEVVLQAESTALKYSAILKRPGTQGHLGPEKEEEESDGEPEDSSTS

Human coronavirus OC43 [6] = assay: Antiviral activity against HCoV-OC43 infected in human NCI-H460 cells incubated for 72 hrs by CCK8 assay; assay type: functional, organism-based; conditions: Betacoronavirus 1, NCI-H460, 72 h
[7] = Cytotoxicity against human NCI-H460 cells incubated for 72 hrs by CCK8 assay; assay type: toxicity, cell-based; conditions: read-out: EC50
Human coronavirus OC43 [8] = assay: Antiviral activity against HCoV-OC43 at replication stage in human Huh-7 cells assessed as dsRNA level at 2 uM treated immediately after infection incubated for 4 to 10 hrs by immunofluorescence based analysis; assay type: functional, organism-based; conditions: time 4-10 hrs
[9] = target: T1, DIS3-like exonuclease 2 (Homo sapiens); assay: (§1) Binding affinity to DIS3L2 (unknown origin) assessed as dissociation constant by SPR analysis
DIS3-like exonuclease 2 = target: T2, DIS3-like exonuclease 2 (Homo sapiens, UniProt Q8IYB7); assay: as §1
T2 sequence (Q8IYB7 whole entry): T1 sequence (whole entry)

Molecule | EC50 (Human coronavirus 229E [1]; Human coronavirus 229E) [µM] | EC50 (Human coronavirus OC43 [2]; Betacoronavirus 1) [µM] | selectivity ratio [4] | EC50 (Human coronavirus OC43 [6]) [µM] | CC50 at 72 h [7] [µM] | also measured
CCC(=O)O[C@@H]1CC(=O)O[C@H](C)C/C=C/C=C/[C@H](O[C@H]2CC[C@H](N(C)C)[C@@H](C)O2)[C@H](C)C[C@H](CC=O)[C@H](O[C@@H]2O[C@H](C)[C@@H](O[C@H]3C[C@@](C)(O)[C@@H](O)[C@H](C)O3)[C@H](N(C)C)[C@H]2O)[C@H]1OC | 27.4 | > 50 | – | – | – | –
CO[C@@H]1[C@@H](O[C@@H]2O[C@H](C)[C@@H](O[C@H]3C[C@@](C)(O)[C@@H](OC(=O)Cc4ccc(Cl)cc4)[C@H](C)O3)[C@H](N(C)C)[C@H]2O)[C@@H](CC=O)C[C@@H](C)[C@@H](O[C@H]2CC[C@H](N(C)C)[C@@H](C)O2)/C=C/C=C/C[C@@H](C)OC(=O)C[C@H]1O | – | – | 20.5 | 0.85 | 17.4 | Kd (FSE RNA pseudoknot): 7.29 µM; Activity (FSE RNA pseudoknot; unidentified human coronavirus): Dose-dependent-effect; Activity (Human coronavirus 229E [3]): Active; Activity [5]: Active; Activity (Human coronavirus OC43 [8]): Active; Activity [9]: Dose-dependent-effect; Kd (DIS3-like exonuclease 2): 4.67 µM
CO[C@@H]1[C@@H](O[C@@H]2O[C@H](C)[C@@H](O[C@H]3C[C@@](C)(O)[C@@H](OC(=O)CC(C)C)[C@H](C)O3)[C@H](N(C)C)[C@H]2O)[C@@H](CC=O)C[C@@H](C)[C@@H](O[C@H]2CC[C@H](N(C)C)[C@@H](C)O2)/C=C/C=C/C[C@@H](C)OC(=O)C[C@H]1OC(C)=O | 6.38 | 11.8 | – | – | – | –
CO[C@@H]1[C@@H](O[C@@H]2O[C@H](C)[C@@H](O[C@H]3C[C@@](C)(O)[C@@H](OC(=O)CC(C)C)[C@H](C)O3)[C@H](N(C)C)[C@H]2O)[C@@H](CC=O)C[C@@H](C)[C@@H](O[C@H]2CC[C@H](N(C)C)[C@@H](C)O2)/C=C/C=C/C[C@@H](C)OC(=O)C[C@H]1O | 3.61 | 5.95 | – | – | – | –
CCC(=O)O[C@@H]1CC(=O)O[C@H](C)C/C=C/C=C/[C@H](O[C@H]2CC[C@H](N(C)C)[C@@H](C)O2)[C@H](C)C[C@H](CC=O)[C@H](O[C@@H]2O[C@H](C)[C@@H](O[C@H]3C[C@@](C)(O)[C@@H](OC(=O)CC(C)C)[C@H](C)O3)[C@H](N(C)C)[C@H]2O)[C@H]1OC | 3.52 | 10.2 | – | – | – | –
CO[C@@H]1[C@@H](O[C@@H]2O[C@H](C)[C@@H](O[C@H]3C[C@@](C)(O)[C@@H](O)[C@H](C)O3)[C@H](N(C)C)[C@H]2O)[C@@H](CC=O)C[C@@H](C)[C@@H](O[C@H]2CC[C@H](N(C)C)[C@@H](C)O2)/C=C/C=C/C[C@@H](C)OC(=O)C[C@H]1OC(C)=O | 25.4 | > 50 | – | – | – | –
SPIRAMYCIN | – | – | – | – | – | EC50 (Human coronavirus 229E [1]): 29.3 µM; EC50 (Human coronavirus OC43 [2]): > 50 µM
CO[C@@H]1[C@@H](O[C@@H]2O[C@H](C)[C@@H](O[C@H]3C[C@@](C)(O)[C@@H](O)[C@H](C)O3)[C@H](N(C)C)[C@H]2OC(=O)CC(C)C)[C@@H](CC=O)C[C@@H](C)[C@@H](O[C@H]2CC[C@H](N(C)C)[C@@H](C)O2)/C=C/C=C/C[C@@H](C)OC(=O)C[C@H]1O | – | – | 3.5 | 4.82 | 17.1 | –
CO[C@@H]1[C@@H](O[C@@H]2O[C@H](C)[C@@H](O[C@H]3C[C@@](C)(O)[C@@H](O)[C@H](C)O3)[C@H](N(C)C)[C@H]2OC(=O)c2ccc(C(F)(F)F)cc2)[C@@H](CC=O)C[C@@H](C)[C@@H](O[C@H]2CC[C@H](N(C)C)[C@@H](C)O2)/C=C/C=C/C[C@@H](C)OC(=O)C[C@H]1O | – | – | 1.1 | 5.96 | 6.74 | –
CO[C@@H]1[C@@H](O[C@@H]2O[C@H](C)[C@@H](O[C@H]3C[C@@](C)(O)[C@@H](O)[C@H](C)O3)[C@H](N(C)C)[C@H]2OC(=O)CC(C)(C)C)[C@@H](CC=O)C[C@@H](C)[C@@H](O[C@H]2CC[C@H](N(C)C)[C@@H](C)O2)/C=C/C=C/C[C@@H](C)OC(=O)C[C@H]1O | – | – | 2.7 | 4.89 | 13.4 | –
